Experimental data published in publication PMC12521909, “Camizestrant in Combination with Three Globally Approved CDK4/6 Inhibitors in Women with ER+, HER2− Advanced Breast Cancer: Results from SERENA-1” (Clinical Cancer Research, 2025).

Key:
[1] = Plasma pharmacokinetics by validated LC/MS-MS (cycle 1, day 15); format: in vivo; details: human, oral; for AUC / Cmax: Cycle 1 Day 15, geomean; for Tmax: Cycle 1 Day 15, median
Protocol: Details of safety and efficacy assessments and of ctDNA sampling and assessments have been described previously ([37]). For PK analyses, plasma concentrations of camizestrant, abemaciclib, palbociclib, and ribociclib were determined using validated LC/MS-MS.
Details of assessments and analysis sets have been described previously ([38]). Briefly, safety was assessed in the safety analysis set, and efficacy and antitumor activity were assessed in the evaluable-for-response set. PK was assessed in the PK analysis set, which included all patients who provided at least one quantifiable postdose PK concentration for either camizestrant or any of the other agents evaluated.

[2] = test system: women with ER+, HER2− advanced breast cancer; experiment: Digital, centrally read triplicate ECGs (resting heart rate, QTcF); parameters: species or system human; details: in vivo
From the text: Digital, centrally read, triplicate ECGs were obtained throughout the study.

[3] = 75 mg, camizestrant 75 mg monotherapy
[4] = 150 mg, camizestrant 150 mg monotherapy
[5] = 300 mg, camizestrant 300 mg monotherapy
[6] = camizestrant 75 mg + abemaciclib
[7] = camizestrant 75 mg + palbociclib
[8] = camizestrant 75 mg + ribociclib (400 mg)
[9] = camizestrant 75 mg + ribociclib (600 mg)
[10] = camizestrant 150 mg + abemaciclib
[11] = camizestrant 150 mg + palbociclib
[12] = camizestrant 300 mg + palbociclib

Compound `C[C@@H]1Cc2c(ccc3[nH]ncc23)[C@@H](c2ccc(NC3CN(CCCF)C3)cn2)N1CC(F)(F)F` [camizestrant] has an AUC [1, 3] of 862 ng·h/mL, a Cmax [1, 3] of 64.7 ng/mL and a Tmax [1, 3] of 3.72 h. For the same compound, the AUC [1, 4] was 2160 ng·h/mL, the Cmax [1, 4] was 166 ng/mL and the Tmax [1, 4] was 2.17 h. The AUC [1, 5] was 4780 ng·h/mL, the Cmax [1, 5] was 376 ng/mL and the Tmax [1, 5] was 3 h. For the same compound, the half-life ([1]; across combinations, PK sampled up to 24 hours, likely underestimated, read-out: Estimated half-life of camizestrant) was 9.5 to 17 h, the AUC [1, 6] was 1120 ng·h/mL and the Cmax [1, 6] was 85.4 ng/mL. It also gave a Tmax [1, 6] of 4 h, an AUC [1, 7] of 1200 ng·h/mL and a Cmax [1, 7] of 93.9 ng/mL. The Tmax [1, 7] was 4 h, the AUC [1, 8] was 2280 ng·h/mL and the Cmax [1, 8] was 154 ng/mL. The Tmax [1, 8] was 3.6 h, the AUC [1, 9] was 2750 ng·h/mL and the Cmax [1, 9] was 179 ng/mL. The Tmax [1, 9] was 4 h, the AUC [1, 10] was 2050 ng·h/mL and the Cmax [1, 10] was 159 ng/mL. It also gave a Tmax [1, 10] of 4 h, an AUC [1, 11] of 2420 ng·h/mL and a Cmax [1, 11] of 189 ng/mL. The Tmax [1, 11] was 3.92 h, the AUC [1, 12] was 4940 ng·h/mL and the Cmax [1, 12] was 386 ng/mL. For the same compound, the Tmax [1, 12] was 4 h and the “Time of gradual decrease in resting HR to stable nadir” value [2] was “approximately 14 days”.
